Reference: patent US12502434B2, “Compound comprising EZH2 inhibitor and E3 ligase binder and pharmaceutical composition for preventing or treating EZH2-associated disease comprising same as active ingredient” (DAEGU-GYEONGBUK MEDICAL INNOVATION FOUNDATION, priority 2019, dated 2025)
Like-named read-outs stand apart in the source and are kept apart here.

Target: T1, EZH2 protein in LS174T cells (Homo sapiens, UniProt Q15910)
T1 construct: endogenous in cells; host or cells: LS174T
Assay: Proteolytic effect in colorectal cancer cells (Western blotting)
Assay type: cell-based
Procedure: After 72 hours of the treatment, the cells were collected and lysed using RIPA buffer (50 mM Tris, pH 7.5, 150 mM NaCl, 1% Triton X-100, 0.1% SDS, […], 0.5% deoxycholate, and protease inhibitor cocktail), followed by sonication (30 sec on/30 sec off, 5 cycles) to prepare a cell lysate.

[1] = EZH2 protein, LS174T cells, 1 μM, 72 hours
[2] = EZH2 protein, LS174T cells, 1 uM, 72 hours, Western blotting

T1 sequence (Q15910 whole entry): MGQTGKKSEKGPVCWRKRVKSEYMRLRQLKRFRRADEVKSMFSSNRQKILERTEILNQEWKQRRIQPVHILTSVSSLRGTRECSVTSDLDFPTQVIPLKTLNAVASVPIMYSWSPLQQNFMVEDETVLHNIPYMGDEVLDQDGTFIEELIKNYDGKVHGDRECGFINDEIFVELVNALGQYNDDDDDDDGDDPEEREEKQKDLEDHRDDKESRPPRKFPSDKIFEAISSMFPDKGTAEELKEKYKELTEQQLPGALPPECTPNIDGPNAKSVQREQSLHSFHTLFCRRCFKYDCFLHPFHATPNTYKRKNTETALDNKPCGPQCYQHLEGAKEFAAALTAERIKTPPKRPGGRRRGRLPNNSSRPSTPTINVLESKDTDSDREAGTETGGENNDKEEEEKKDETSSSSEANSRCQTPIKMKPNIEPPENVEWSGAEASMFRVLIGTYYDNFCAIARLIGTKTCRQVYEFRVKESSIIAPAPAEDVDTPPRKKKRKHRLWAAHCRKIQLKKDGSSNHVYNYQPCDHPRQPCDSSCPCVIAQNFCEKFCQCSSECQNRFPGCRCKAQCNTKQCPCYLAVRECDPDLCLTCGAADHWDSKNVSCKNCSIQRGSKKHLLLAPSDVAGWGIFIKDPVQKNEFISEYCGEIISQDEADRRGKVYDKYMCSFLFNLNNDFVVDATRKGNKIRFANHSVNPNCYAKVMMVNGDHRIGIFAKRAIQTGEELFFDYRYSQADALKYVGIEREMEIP
T1 sequence (O75530 whole entry partner): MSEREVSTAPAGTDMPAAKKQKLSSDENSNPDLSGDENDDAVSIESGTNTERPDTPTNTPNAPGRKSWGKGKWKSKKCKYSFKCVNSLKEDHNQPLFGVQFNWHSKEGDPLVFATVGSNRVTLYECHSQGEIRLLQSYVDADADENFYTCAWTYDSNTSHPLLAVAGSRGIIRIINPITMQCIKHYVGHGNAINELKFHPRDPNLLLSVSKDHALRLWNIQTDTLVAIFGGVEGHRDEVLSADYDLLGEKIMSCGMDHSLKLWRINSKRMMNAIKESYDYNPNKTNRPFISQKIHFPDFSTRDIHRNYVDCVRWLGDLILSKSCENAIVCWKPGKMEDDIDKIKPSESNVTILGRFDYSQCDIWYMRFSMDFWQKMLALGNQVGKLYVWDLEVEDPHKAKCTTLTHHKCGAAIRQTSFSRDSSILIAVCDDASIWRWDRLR
T1 sequence (Q15022 whole entry partner): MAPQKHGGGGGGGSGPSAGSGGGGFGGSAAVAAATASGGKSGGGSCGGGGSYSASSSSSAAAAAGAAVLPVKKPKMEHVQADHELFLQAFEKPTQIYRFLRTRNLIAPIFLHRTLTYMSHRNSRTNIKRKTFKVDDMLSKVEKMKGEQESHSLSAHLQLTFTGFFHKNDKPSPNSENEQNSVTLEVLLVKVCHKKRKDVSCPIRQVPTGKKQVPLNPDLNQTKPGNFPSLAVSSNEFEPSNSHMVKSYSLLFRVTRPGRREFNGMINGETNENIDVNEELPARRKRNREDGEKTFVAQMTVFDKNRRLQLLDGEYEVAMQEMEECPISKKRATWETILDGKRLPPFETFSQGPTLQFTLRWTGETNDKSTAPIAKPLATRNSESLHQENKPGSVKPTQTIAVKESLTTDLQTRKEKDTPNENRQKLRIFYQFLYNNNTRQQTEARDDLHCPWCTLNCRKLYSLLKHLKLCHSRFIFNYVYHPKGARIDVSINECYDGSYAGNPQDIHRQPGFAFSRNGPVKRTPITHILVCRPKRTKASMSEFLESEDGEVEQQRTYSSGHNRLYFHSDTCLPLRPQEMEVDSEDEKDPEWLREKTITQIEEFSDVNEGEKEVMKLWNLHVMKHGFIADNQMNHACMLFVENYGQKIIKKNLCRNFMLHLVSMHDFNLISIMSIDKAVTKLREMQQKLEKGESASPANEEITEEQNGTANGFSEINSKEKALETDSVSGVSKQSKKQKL

Grade (percent value of the protein degradation when treated with 1 μM) [1] | %, degradation at 1 uM [2] | effect of degrading EZH2 protein when treated to colorectal cancer cells (in words) (LS174T cells) | Structure (SMILES) | %, degradation at 1 uM | Grade (percent value of the protein degradation when treated with 1 μM)
D (<25%) | 0% | – | CCN(c1cc(-c2ccc(CN3CCN(CC(=O)NCCOCCOCCOCCC(=O)NCCNc4cccc5c4C(=O)N(C4CCC(=O)NC4=O)C5=O)CC3)cc2)cc(C(=O)NCc2c(C)cc(C)[nH]c2=O)c1C)C1CCOCC1 (centres unmarked) [Example 4, N-((4,6-dimethyl-2-oxo-1,2-dihydropyridine-3-yl)methyl)-4′-((4-(18-((2-(2,6-dioxopiperidine-3-yl)-1,3-dioxoisoindoline-4-yl)amino)-2,15-dioxo-6,9,12-trioxa-3,16-diazaoctadecyl)piperazine-1-yl)methyl)-5-(ethyl(tetrahydro-2H-pyran-4-yl)amino)-4-methyl-[1,1′-biphenyl]-3-carboxamide] | – | –
– | – | – | CCN(c1cc(-c2ccc(CN3CCN(CC(=O)NCCCOCCOc4cccc5c4C(=O)N(C4CCC(=O)NC4=O)C5=O)CC3)cc2)cc(C(=O)NCc2c(C)cc(C)[nH]c2=O)c1C)C1CCOCC1 (centres unmarked) [Example 17, N-((4,6-dimethyl-2-oxo-1,2-dihydropyridine-3-yl)methyl)-4′-((4-(2-((3-(2-((2-(2,6-dioxopiperidine-3-yl)-1,3-dioxoisoindoline-4-yl)oxy)ethoxy)propyl)amino)-2-oxoethyl)piperazine-1-yl)methyl)-5-(ethyl(tetrahydro-2H-pyran-4-yl)amino)-4-methyl-[1,1′-biphenyl]-3-carboxamide] | 3.25% | D (key: A: >75%; B: 50-75%; C: 25-50%; D: <25%)
– | – | – | CCN(c1cc(-c2ccc(CN3CCN(CC(=O)NCCCOCCCOCC(=O)N[C@H](C(=O)N4C[C@H](O)C[C@H]4C(=O)NCc4ccc(-c5scnc5C)cc4)C(C)(C)C)CC3)cc2)cc(C(=O)NCc2c(C)cc(C)[nH]c2=O)c1C)C1CCOCC1 [Example 42, (2S,4R)-1-((S)-2-(tert-butyl)-16-(4-((3′-(((4,6-dimethyl-2-oxo-1,2-dihydropyridine-3-yl)methyl)carbamoyl)-5′-(ethyl(tetrahydro-2H-pyran-4-yl)amino)-4′-methyl-[1,1′-biphenyl]-4-yl)methyl)piperazine-1-yl)-4,15-dioxo-6,10-dioxa-3,14-diazahexadecanoyl)-4-hydroxy-N-(4-(4-methylthiazole-5-yl)benzyl)pyrrolidine-2-carboxamide] | 0% | D (key: A: >75%; B: 50-75%; C: 25-50%; D: <25%)
D (<25%) | 5.74% | excellent effects | CCN(c1cc(-c2ccc(CN3CCN(C(=O)c4cn(CCCCC(=O)N[C@H](C(=O)N5C[C@H](O)C[C@H]5C(=O)NCc5ccc(-c6scnc6C)cc5)C(C)(C)C)nn4)CC3)cc2)cc(C(=O)NCc2c(C)cc(C)[nH]c2=O)c1C)C1CCOCC1 [Example 48, (2S,4R)-1-((S)-2-(5-(4-(4-((3′-(((4,6-dimethyl-2-oxo-1,2-dihydropyridine-3-yl)methyl)carbamoyl)-5′-(ethyl(tetrahydro-2H-pyran-4-yl)amino)-4′-methyl-[1,1′-biphenyl]-4-yl)methyl)piperazine-1-carbonyl)-1H-1,2,3-triazole-1-yl)pentanamido)-3,3-dimethylbutanoyl)-4-hydroxy-N-(4-(4-methylthiazole-5-yl)benzyl)pyrrolidine-2-carboxamide] | – | –
D (<25%) | 6.21% | – | CCN(c1cc(-c2ccc(CN3CCN(C(=O)CNCCCCCCNc4cccc5c4C(=O)N(C4CCC(=O)NC4=O)C5=O)CC3)cc2)cc(C(=O)NCc2c(C)cc(C)[nH]c2=O)c1C)C1CCOCC1 (centres unmarked) [Example 14, N-((4,6-dimethyl-2-oxo-1,2-dihydropyridine-3-yl)methyl)-4′-((4-((6-((2-(2,6-dioxopiperidine-3-yl)-1,3-dioxoisoindoline-4-yl)amino)hexyl)glycyl)piperazine-1-yl)methyl)-5-(ethyl(tetrahydro-2H-pyran-4-yl)amino)-4-methyl-[1,1′-biphenyl]-3-carboxamide] | – | –
D (<25%) | 16.89% | – | CCN(c1cc(-c2ccc(CN3CCN(C(=O)CNCCNc4cccc5c4C(=O)N(C4CCC(=O)NC4=O)C5=O)CC3)cc2)cc(C(=O)NCc2c(C)cc(C)[nH]c2=O)c1C)C1CCOCC1 (centres unmarked) [Example 12, N-((4,6-dimethyl-2-oxo-1,2-dihydropyridine-3-yl)methyl)-4′-((4-((2-((2-(2,6-dioxopiperidine-3-yl)-1,3-dioxoisoindoline-4-yl)amino)ethyl)glycyl)piperazine-1-yl)methyl)-5-(ethyl(tetrahydro-2H-pyran-4-yl)amino)-4-methyl-[1,1′-biphenyl]-3-carboxamide] | – | –
D (<25%) | 8.36% | – | CCN(c1cc(-c2ccc(CN3CCN(CC(=O)NCCCCCC(=O)N[C@H](C(=O)N4C[C@H](O)C[C@H]4C(=O)NCc4ccc(-c5scnc5C)cc4)C(C)(C)C)CC3)cc2)cc(C(=O)NCc2c(C)cc(C)[nH]c2=O)c1C)C1CCOCC1 [Example 41, (2S,4R)-1-((S)-2-(6-(2-(4-((3′-(((4,6-dimethyl-2-oxo-1,2-dihydropyridine-3-yl)methyl)carbamoyl)-5′-(ethyl(tetrahydro-2H-pyran-4-yl)amino)-4′-methyl-[1,1′-biphenyl]-4-yl)methyl)piperazine-1-yl)acetamido)hexanamido)-3,3-dimethylbutanoyl)-4-hydroxy-N-(4-(4-methylthiazole-5-yl)benzyl)pyrrolidine-2-carboxamide] | – | –
B (50-75%) | 61.64% | – | CCN(c1cc(-c2ccc(CN3CCN(CC(=O)NCCCCCCNc4cccc5c4C(=O)N(C4CCC(=O)NC4=O)C5=O)CC3)cc2)cc(C(=O)NCc2c(C)cc(C)[nH]c2=O)c1C)C1CCOCC1 (centres unmarked) [Example 6, N-((4,6-dimethyl-2-oxo-1,2-dihydropyridine-3-yl)methyl)-4′-((4-(2-((6-((2-(2,6-dioxopiperidine-3-yl)-1,3-dioxoisoindoline-4-yl)amino)hexyl)amino)-2-oxoethyl)piperazine-1-yl)methyl)-5-(ethyl(tetrahydro-2H-pyran-4-yl)amino)-4-methyl-[1,1′-biphenyl]-3-carboxamide] | – | –
A (>75%) | 76.02% | excellent effects | CCN(c1cc(-c2ccc(CN3CCN(CC(=O)N4CCC5(CCN(CCCC(=O)N[C@H](C(=O)N6C[C@H](O)C[C@H]6C(=O)NCc6ccc(-c7scnc7C)cc6)C(C)(C)C)CC5)CC4)CC3)cc2)cc(C(=O)NCc2c(C)cc(C)[nH]c2=O)c1C)C1CCOCC1 [Example 45, (2S,4R)-1-((S)-2-(4-(9-(2-(4-((3′-(((4,6-dimethyl-2-oxo-1,2-dihydropyridine-3-yl)methyl)carbamoyl)-5′-(ethyl(tetrahydro-2H-pyran-4-yl)amino)-4′-methyl-[1,1′-biphenyl]-4-yl)methyl)piperazine-1-yl)acetyl)-3,9-diazaspiro[5.5]undecane-3-yl)butanamido)-3,3-dimethylbutanoyl)-4-hydroxy-N-(4-(4-methylthiazole-5-yl)benzyl)pyrrolidine-2-carboxamide] | – | –
D (<25%) | 7.41% | – | CCN(c1cc(-c2ccc(CN3CCN(C(=O)c4cn(CCCNc5cccc6c5C(=O)N(C5CCC(=O)NC5=O)C6=O)nn4)CC3)cc2)cc(C(=O)NCc2c(C)cc(C)[nH]c2=O)c1C)C1CCOCC1 (centres unmarked) [Example 25, N-((4,6-dimethyl-2-oxo-1,2-dihydropyridine-3-yl)methyl)-4′-((4-(1-(3-((2-(2,6-dioxopiperidine-3-yl)-1,3-dioxoisoindoline-4-yl)amino)propyl)-1H-1,2,3-triazole-4-carbonyl)piperazine-1-yl)methyl)-5-(ethyl(tetrahydro-2H-pyran-4-yl)amino)-4-methyl[1,1′-biphenyl]-3-carboxamide] | – | –
– | – | – | CCN(c1cc(-c2ccc(CN3CCN(CC(=O)NCCCCCCNc4cccc5c4CN(C4CCC(=O)NC4=O)C5=O)CC3)cc2)cc(C(=O)NCc2c(C)cc(C)[nH]c2=O)c1C)C1CCOCC1 (centres unmarked) [Example 20, N-((4,6-dimethyl-2-oxo-1,2-dihydropyridine-3-yl)methyl)-4′-((4-(2-((6-((2-(2,6-dioxopiperidine-3-yl)-1-oxoisoindoline-4-yl)amino)hexyl)amino)-2-oxoethyl)piperazine-1-yl)methyl)-5-(ethyl(tetrahydro-2H-pyran-4-yl)amino)-4-methyl[1,1′-biphenyl]-3-carboxamide] | 58.73% | B (key: A: >75%; B: 50-75%; C: 25-50%; D: <25%)
C (25-50%) | 29.35% | – | CCN(c1cc(-c2ccc(CN3CCN(C(=O)CNCCCCNc4cccc5c4C(=O)N(C4CCC(=O)NC4=O)C5=O)CC3)cc2)cc(C(=O)NCc2c(C)cc(C)[nH]c2=O)c1C)C1CCOCC1 (centres unmarked) [Example 13, N-((4,6-dimethyl-2-oxo-1,2-dihydropyridine-3-yl)methyl)-4′-((4-((4-((2-(2,6-dioxopiperidine-3-yl)-1,3-dioxoisoindoline-4-yl)amino)butyl)glycyl)piperazine-1-yl)methyl)-5-(ethyl(tetrahydro-2H-pyran-4-yl)amino)-4-methyl-[1,1′-biphenyl]-3-carboxamide] | – | –
